Test results taken from paper PMC4770715, “LIM kinase inhibitors disrupt mitotic microtubule organization and impair tumor cell proliferation” (Oncotarget, 2015).

Key:
Experiment in all cases: biochemical
Parameters in all cases: KINOMEscan active-site competition binding, percent of control (100 = no competition)
Settings in all cases: competition binding, percent control
CAMK2G = CAMK2G (Homo sapiens, UniProt Q13555)
CDK3 = CDK3 (Homo sapiens, UniProt Q00526)
CDK4-cyclinD1 = biological target: T1, CDK4-cyclinD1 (Homo sapiens, UniProt P11802)
T1 construct: cyclinD1

CDK7 = CDK7 (Homo sapiens, UniProt P50613)
CDK8 = CDK8 (Homo sapiens, UniProt P49336)
CIT = CIT (Homo sapiens, UniProt O14578)
CSNK2A2 = CSNK2A2 (Homo sapiens, UniProt P19784)
DLK = biological target: T2, DLK (Homo sapiens, UniProt Q12852)
T2 construct: gene MAP3K12

EGFR(L747-T751del,Sins) = EGFR(L747-T751del,Sins) (Homo sapiens, UniProt P00533, DEL747-750/T751S)
EGFR(L861Q) = EGFR(L861Q) (Homo sapiens, UniProt P00533, L861Q)
ERBB3 = ERBB3 (Homo sapiens, UniProt P21860)
FAK = biological target: T3, FAK (Homo sapiens, UniProt Q05397)
T3 construct: gene PTK2

FGFR3(G697C) = FGFR3(G697C) (Homo sapiens, UniProt P22607, G697C)
GRK1 = GRK1 (Homo sapiens, UniProt Q15835)
MST3 = biological target: T4, MST3 (Homo sapiens, UniProt Q9Y6E0)
T4 construct: gene STK24

MUSK = MUSK (Homo sapiens, UniProt O15146)
MYLK4 = MYLK4 (Homo sapiens, UniProt Q86YV6)
NEK9 = NEK9 (Homo sapiens, UniProt Q8TD19)
PAK4 = PAK4 (Homo sapiens, UniProt O96013)
PIK3CG = PIK3CG (Homo sapiens, UniProt P48736)
PLK3 = PLK3 (Homo sapiens, UniProt Q9H4B4)
RIPK1 = RIPK1 (Homo sapiens, UniProt Q13546)
SRMS = SRMS (Homo sapiens, UniProt Q9H3Y6)
Sequence of SRMS (Q9H3Y6 whole entry): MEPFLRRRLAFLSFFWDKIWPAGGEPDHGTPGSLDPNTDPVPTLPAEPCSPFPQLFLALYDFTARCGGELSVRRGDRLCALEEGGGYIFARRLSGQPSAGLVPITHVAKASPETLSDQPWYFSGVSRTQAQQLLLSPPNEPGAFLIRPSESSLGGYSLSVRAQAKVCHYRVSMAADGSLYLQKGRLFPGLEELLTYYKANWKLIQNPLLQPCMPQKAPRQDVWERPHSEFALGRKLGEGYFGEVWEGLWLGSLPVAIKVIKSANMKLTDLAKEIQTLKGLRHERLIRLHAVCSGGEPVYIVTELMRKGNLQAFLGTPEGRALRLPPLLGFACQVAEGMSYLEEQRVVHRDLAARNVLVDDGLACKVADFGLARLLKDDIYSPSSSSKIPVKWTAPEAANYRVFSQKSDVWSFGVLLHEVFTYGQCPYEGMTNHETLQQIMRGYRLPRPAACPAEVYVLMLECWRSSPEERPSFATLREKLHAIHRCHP

Sequence of ERBB3 (P21860 whole entry): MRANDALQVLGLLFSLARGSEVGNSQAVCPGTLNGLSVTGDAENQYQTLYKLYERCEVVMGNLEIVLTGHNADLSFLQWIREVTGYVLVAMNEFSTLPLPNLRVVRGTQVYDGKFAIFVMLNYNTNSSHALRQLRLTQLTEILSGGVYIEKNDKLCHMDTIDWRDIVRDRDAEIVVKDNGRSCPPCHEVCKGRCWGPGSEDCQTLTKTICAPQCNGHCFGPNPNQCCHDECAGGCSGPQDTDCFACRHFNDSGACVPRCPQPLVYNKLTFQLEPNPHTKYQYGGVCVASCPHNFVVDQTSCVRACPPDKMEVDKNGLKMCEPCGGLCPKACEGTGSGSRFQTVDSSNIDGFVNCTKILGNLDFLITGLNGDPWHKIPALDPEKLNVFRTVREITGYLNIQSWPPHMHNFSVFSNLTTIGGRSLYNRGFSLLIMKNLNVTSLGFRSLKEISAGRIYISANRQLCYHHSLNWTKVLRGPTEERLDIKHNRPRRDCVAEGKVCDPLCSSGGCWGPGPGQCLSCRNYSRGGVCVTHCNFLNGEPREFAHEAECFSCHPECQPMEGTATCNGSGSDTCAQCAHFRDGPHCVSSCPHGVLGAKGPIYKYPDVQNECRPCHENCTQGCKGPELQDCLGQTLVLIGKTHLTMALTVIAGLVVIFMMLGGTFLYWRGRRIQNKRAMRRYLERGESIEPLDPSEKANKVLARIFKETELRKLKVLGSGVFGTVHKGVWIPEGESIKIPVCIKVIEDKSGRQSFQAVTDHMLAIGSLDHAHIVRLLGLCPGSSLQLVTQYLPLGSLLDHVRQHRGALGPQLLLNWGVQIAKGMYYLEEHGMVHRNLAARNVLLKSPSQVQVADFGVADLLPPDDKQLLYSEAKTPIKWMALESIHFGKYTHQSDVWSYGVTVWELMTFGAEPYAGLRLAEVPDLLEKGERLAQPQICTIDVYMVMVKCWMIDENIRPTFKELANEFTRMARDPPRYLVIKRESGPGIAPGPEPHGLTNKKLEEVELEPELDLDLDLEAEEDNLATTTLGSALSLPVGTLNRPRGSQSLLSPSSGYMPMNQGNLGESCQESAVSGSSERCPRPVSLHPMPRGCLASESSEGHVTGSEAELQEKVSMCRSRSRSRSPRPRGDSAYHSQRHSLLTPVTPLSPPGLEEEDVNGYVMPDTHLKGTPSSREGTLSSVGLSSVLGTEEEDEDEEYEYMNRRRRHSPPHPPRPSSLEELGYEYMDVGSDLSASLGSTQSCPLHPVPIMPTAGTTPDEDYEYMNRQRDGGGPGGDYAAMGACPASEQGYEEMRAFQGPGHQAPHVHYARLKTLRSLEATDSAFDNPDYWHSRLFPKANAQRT
T1 sequence (P11802 whole entry): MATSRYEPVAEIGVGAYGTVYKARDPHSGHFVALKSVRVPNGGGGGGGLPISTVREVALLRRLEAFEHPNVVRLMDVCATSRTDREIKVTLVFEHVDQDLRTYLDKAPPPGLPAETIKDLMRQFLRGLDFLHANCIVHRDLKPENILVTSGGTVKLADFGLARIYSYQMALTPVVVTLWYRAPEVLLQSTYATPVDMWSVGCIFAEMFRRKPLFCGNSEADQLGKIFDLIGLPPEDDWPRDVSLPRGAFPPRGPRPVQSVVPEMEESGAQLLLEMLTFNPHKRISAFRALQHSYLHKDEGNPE
T1 sequence (P24385 whole entry partner): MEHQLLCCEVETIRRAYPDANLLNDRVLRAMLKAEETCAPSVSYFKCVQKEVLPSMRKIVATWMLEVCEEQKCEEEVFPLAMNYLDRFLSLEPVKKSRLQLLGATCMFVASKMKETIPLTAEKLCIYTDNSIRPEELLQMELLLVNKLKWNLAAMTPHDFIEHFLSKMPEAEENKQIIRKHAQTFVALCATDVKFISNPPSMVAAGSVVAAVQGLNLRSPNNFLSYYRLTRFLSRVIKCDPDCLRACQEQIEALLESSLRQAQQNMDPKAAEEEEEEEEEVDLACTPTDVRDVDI
T4 sequence (Q9Y6E0 whole entry): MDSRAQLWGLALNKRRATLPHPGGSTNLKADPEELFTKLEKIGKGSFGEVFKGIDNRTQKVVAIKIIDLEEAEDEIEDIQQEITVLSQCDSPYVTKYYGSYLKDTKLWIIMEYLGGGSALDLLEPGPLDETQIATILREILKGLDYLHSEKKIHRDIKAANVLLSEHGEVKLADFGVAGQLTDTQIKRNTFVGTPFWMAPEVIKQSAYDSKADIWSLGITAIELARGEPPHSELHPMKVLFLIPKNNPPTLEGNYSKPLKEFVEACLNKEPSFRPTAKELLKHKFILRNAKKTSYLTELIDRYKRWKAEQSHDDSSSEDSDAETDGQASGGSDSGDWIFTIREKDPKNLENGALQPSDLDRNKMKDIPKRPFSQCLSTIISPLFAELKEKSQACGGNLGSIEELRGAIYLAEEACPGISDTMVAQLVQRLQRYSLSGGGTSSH
Sequence of NEK9 (Q8TD19 whole entry): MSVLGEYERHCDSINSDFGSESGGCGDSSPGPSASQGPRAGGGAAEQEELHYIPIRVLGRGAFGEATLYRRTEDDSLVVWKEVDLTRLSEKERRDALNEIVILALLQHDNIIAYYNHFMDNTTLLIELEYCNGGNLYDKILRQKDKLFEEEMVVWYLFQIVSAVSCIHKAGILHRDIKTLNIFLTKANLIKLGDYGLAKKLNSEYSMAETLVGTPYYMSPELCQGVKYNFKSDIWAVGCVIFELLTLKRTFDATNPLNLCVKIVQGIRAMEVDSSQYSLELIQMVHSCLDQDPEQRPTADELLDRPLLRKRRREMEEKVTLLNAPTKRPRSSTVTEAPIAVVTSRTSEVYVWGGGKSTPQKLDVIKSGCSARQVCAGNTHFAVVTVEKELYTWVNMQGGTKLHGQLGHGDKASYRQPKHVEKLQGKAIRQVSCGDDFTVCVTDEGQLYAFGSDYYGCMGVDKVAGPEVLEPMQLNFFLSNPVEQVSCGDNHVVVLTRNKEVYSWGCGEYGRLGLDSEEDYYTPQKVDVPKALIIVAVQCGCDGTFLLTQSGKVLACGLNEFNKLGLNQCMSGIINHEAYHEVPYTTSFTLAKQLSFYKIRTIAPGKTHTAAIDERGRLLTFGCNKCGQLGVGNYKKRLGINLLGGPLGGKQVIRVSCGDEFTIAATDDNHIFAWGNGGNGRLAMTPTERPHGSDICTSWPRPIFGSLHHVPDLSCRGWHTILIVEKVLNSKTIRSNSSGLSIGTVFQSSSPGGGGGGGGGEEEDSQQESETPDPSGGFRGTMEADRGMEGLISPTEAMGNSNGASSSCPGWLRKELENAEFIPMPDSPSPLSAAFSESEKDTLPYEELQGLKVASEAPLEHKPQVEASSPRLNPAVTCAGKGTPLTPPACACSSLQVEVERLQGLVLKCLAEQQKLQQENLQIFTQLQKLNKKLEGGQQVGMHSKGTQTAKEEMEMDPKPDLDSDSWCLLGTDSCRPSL
Sequence of PLK3 (Q9H4B4 whole entry): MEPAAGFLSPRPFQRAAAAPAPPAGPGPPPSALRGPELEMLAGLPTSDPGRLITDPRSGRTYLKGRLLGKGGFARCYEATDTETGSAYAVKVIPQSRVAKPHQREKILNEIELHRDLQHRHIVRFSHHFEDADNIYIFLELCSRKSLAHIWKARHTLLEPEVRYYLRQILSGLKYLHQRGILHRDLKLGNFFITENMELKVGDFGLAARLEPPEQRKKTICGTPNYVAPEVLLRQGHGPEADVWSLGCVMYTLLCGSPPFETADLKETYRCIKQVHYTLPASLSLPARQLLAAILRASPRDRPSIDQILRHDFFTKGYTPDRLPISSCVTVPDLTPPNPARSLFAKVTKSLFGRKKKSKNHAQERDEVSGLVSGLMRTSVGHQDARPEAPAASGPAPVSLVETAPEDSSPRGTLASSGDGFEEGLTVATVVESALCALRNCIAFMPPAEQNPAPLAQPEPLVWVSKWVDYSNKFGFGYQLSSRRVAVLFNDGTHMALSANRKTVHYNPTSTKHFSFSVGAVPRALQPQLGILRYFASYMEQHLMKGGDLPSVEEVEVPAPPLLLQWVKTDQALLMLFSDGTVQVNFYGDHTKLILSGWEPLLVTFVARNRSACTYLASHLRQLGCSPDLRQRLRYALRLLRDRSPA
Sequence of CSNK2A2 (P19784 whole entry): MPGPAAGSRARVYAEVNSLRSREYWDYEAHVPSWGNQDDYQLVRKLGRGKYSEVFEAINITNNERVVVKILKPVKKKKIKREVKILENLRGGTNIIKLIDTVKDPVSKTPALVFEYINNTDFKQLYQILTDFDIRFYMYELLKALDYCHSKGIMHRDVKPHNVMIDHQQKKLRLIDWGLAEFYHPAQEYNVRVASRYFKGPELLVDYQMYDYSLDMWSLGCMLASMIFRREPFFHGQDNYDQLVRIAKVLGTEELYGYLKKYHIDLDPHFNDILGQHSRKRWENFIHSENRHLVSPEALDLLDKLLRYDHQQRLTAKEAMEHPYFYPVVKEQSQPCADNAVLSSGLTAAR

Compound | remaining binding at 10 µM (CAMK2G) [%] | remaining binding at 10 µM (CDK3) [%] | remaining binding at 10 µM (CDK4-cyclinD1) [%] | remaining binding at 10 µM (CDK7) [%] | remaining binding at 10 µM (CDK8) [%] | remaining binding at 10 µM (CIT) [%] | remaining binding at 10 µM (CSNK2A2) [%] | remaining binding at 10 µM (DLK) [%] | remaining binding at 10 µM (EGFR(L747-T751del,Sins)) [%] | remaining binding at 10 µM (EGFR(L861Q)) [%] | remaining binding at 10 µM (ERBB3) [%] | remaining binding at 10 µM (FAK) [%] | remaining binding at 10 µM (FGFR3(G697C)) [%] | remaining binding at 10 µM (GRK1) [%] | remaining binding at 10 µM (MST3) [%] | remaining binding at 10 µM (MUSK) [%] | remaining binding at 10 µM (MYLK4) [%] | remaining binding at 10 µM (NEK9) [%] | remaining binding at 10 µM (PAK4) [%] | remaining binding at 10 µM (PIK3CG) [%] | also measured
COc1ccc(-c2cnccc2-c2cnc(NC(=O)C(C)C)s2)c(C(F)(F)F)c1 [CRT0105446, N-{5-[3-(4-Methoxy-2-trifluoromethyl-phenyl)-pyridin-4-yl]-hiazol-2-yl}-isobutyramide] | 80 | 24 | 20 | 5.8 | 39 | 37 | 91 | 100 | 100 | 100 | 100 | 100 | 93 | 70 | 72 | 96 | 71 | 92 | 82 | 96 | remaining binding at 10 µM (PLK3): 97%; remaining binding at 10 µM (RIPK1): 90%; remaining binding at 10 µM (SRMS): 93%
Cc1ccc(-c2cnccc2-c2cnc(Nc3ccc(O)cc3)s2)c(Cl)c1 [CRT0105950, 4-{5-[3-(2-Chloro-4-methyl-phenyl)-pyridin-4-yl]-thiazol-2-ylamino}-phenol] | 49 | 7.7 | 3.7 | 32 | 11 | 44 | 58 | 100 | 68 | 65 | 100 | 33 | 7.2 | 59 | 40 | 18 | 9.4 | 96 | 79 | 82 | remaining binding at 10 µM (PLK3): 44%; remaining binding at 10 µM (RIPK1): 17%; remaining binding at 10 µM (SRMS): 87%
